Laboratory results: ChEMBL document CHEMBL1777738, “3-Cyano-6-(5-methyl-3-pyrazoloamino)pyridines: selective Aurora A kinase inhibitors” (Bioorg Med Chem Lett, 2010)
One block for each compound: values may come before it.

Key:
Aurora kinase A = target: T1, Aurora kinase A (Homo sapiens, UniProt O14965)
T1 sequence (O14965 whole entry): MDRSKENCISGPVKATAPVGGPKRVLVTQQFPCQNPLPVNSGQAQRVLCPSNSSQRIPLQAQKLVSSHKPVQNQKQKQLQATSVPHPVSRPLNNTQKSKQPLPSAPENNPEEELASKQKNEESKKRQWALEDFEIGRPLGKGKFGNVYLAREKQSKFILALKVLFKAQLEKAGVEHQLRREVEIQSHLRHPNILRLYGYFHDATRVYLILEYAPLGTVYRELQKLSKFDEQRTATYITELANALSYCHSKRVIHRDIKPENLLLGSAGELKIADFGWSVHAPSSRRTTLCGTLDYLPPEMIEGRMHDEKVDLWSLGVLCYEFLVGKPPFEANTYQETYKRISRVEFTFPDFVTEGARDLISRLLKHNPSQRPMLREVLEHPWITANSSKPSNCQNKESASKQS
Description: Inhibition of phosphotransferase activity of recombinant aurora A expressed in HeLa cells

[1] = Intrinsic clearance in human hepatic microsomes; type: ADME, Liver, Microsome
HCT-116 [2] = assay: Antiproliferative activity against human HCT116 cells; type: functional, cell-based
[3] = target: Proto-oncogene tyrosine-protein kinase Src (Homo sapiens, UniProt P12931); assay: Inhibition of c-SRC
Chain of Proto-oncogene tyrosine-protein kinase Src (P12931 2-536 limits assumed): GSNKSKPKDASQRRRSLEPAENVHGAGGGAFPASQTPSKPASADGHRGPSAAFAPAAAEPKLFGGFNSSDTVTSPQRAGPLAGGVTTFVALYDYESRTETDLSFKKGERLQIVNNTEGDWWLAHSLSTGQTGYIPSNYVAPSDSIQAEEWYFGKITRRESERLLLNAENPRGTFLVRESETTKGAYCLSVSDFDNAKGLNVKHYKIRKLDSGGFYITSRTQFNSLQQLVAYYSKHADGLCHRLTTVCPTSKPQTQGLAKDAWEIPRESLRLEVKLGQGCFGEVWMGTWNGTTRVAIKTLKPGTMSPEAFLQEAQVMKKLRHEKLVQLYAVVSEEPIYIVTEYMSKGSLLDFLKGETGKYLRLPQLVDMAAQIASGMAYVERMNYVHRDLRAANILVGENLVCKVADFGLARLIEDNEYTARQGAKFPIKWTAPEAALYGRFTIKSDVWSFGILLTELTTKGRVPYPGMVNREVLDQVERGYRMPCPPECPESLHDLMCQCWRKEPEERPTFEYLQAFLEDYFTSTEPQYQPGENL

Aurora kinase B = Aurora kinase B (Homo sapiens, UniProt Q96GD4); assay: Inhibition of aurora B
Chain of Aurora kinase B (Q96GD4 whole entry): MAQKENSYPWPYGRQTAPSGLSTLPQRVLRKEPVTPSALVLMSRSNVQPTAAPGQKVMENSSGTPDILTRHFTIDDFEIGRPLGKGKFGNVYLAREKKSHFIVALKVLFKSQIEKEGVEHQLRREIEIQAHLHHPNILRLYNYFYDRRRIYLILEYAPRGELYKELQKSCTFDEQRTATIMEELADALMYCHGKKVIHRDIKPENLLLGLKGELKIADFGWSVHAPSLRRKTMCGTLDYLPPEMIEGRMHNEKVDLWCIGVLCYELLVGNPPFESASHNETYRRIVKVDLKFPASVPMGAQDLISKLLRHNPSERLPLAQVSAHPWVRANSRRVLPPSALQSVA

[4] = target: Tyrosine-protein kinase Yes (Homo sapiens, UniProt P07947); assay: Inhibition of Yes
Chain of Tyrosine-protein kinase Yes (P07947 whole entry): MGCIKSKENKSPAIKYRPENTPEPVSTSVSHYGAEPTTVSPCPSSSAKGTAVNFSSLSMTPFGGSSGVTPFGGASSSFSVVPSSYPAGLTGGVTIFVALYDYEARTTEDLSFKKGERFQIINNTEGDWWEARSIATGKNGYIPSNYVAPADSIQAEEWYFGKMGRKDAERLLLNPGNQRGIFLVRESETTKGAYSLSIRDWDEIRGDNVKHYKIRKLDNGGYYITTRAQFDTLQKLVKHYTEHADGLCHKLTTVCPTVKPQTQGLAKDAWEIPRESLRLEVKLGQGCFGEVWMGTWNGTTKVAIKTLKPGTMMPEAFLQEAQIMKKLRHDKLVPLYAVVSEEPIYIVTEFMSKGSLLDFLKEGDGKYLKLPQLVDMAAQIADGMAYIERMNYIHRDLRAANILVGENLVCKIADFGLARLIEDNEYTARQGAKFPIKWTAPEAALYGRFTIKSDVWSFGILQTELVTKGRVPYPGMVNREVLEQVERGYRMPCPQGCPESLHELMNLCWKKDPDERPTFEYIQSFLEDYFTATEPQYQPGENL

[5] = target: Tyrosine-protein kinase Fyn (Homo sapiens, UniProt P06241); assay: Inhibition of Fyn
Chain of Tyrosine-protein kinase Fyn (P06241 whole entry): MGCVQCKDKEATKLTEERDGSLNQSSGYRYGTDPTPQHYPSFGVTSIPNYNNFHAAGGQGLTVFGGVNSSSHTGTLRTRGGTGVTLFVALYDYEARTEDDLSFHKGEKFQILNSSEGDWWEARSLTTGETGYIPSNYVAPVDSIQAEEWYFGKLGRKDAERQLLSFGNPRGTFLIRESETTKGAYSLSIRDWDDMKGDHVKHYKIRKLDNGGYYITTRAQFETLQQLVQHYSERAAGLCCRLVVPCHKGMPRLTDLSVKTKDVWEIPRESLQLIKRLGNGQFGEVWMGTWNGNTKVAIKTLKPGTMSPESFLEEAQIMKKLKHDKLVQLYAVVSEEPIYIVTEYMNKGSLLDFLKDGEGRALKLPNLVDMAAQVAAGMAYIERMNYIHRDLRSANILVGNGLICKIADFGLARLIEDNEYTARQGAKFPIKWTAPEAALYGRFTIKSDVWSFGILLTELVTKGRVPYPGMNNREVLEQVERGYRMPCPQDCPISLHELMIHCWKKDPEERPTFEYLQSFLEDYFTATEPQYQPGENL

[6] = Half life in rat at 30 mg/kg, po; type: ADME, organism-based; design: dose 30 mg/kg, route oral; conditions: in vivo
[7] = Tmax in rat at 30 mg/kg, po; type: ADME, organism-based; design: dose 30 mg/kg, route oral; conditions: in vivo
Mus musculus = assay: Toxicity in human HCT116 cells xenografted mouse assessed as reduction in body weight at 30 mg/kg, po qd for 14 days; type: organism-based, HCT-116; design: dose 30 mg/kg, route oral; conditions: in vivo, 336 h
[8] = Drug level in rat serum at 30 mg/kg, po after 24 hrs; type: ADME, organism-based; design: dose 30 mg/kg, route oral; conditions: read-out: Drug uptake
[9] = Cmax in rat at 30 mg/kg, po; type: ADME, organism-based; design: dose 30 mg/kg, route oral; conditions: in vivo
HCT-116 [10] = assay: Antitumor activity against human HCT116 cells xenografted in mouse assessed as tumor growth inhibition at 30 mg/kg, po qd for 14 days; type: functional; conditions: HCT-116, 336 h
HCT-116 [11] = assay: Antitumor activity against human HCT116 cells xenografted in mouse assessed as tumor growth inhibition at 100 mg/kg, ip qd for 14 days
HCT-116 [12] = assay: Antitumor activity against human HCT116 cells xenografted in mouse assessed as tumor growth inhibition at 30 mg/kg, ip qd for 14 days

SMILES: Cc1cc(Nc2cc(C)c(C#N)c(NCCCCCC(C)(C)O)n2)n[nH]1
Ki (Aurora kinase A): 2.3 nM

SMILES: Cc1cc(Nc2cc(C)c(C#N)c(SCCCCCCN)n2)[nH]n1
Ki (Aurora kinase A): 28 nM

SMILES: Cc1cc(Nc2cc(-c3ccccc3)c(C#N)c(Sc3ccc(NC(=O)C(C)C)cc3)n2)n[nH]1
Ki (Aurora kinase A): 310 nM

SMILES: CCCCCCSc1nc(Nc2cc(C)n[nH]2)cc(C)c1C#N
Ki (Aurora kinase A): 3.8 nM

SMILES: Cc1cc(Nc2cc(C)c(C#N)c(NCCCCCCO)n2)[nH]n1
Ki (Aurora kinase A): 4.5 nM

SMILES: Cc1cc(Nc2cc(C)c(C#N)c(N[C@@H](C)CCCC(C)(C)O)n2)[nH]n1
IC50 (HCT-116 [2]): 52 nM
Ki (Aurora kinase A): 0.59 nM
CL [1]: 50 µL/min/mg

SMILES: Cc1cc(Nc2cc(N3CCN(C)CC3)nc(Sc3ccc(NC(=O)C4CC4)cc3)n2)n[nH]1
growth inhibition (GI) (HCT-116 [11]): 68%
growth inhibition (GI) (HCT-116 [12]): 60%

The remaining compounds from weak to strong by Ki (Aurora kinase A), led by results:

Ki (Aurora kinase A): 66 nM
CL [1]: 110 µL/min/mg
SMILES: Cc1cc(Nc2cc(C)c(C#N)c(N[C@H](C)CCCC(C)(C)O)n2)n[nH]1

Ki (Aurora kinase A): 20 nM
SMILES: Cc1cc(Nc2cc(C)c(C#N)c(NCCO)n2)[nH]n1

Ki (Aurora kinase A): 9.7 nM
SMILES: Cc1cc(Nc2cc(C)c(C#N)c(SCCCCCC(C)(C)O)n2)[nH]n1

Ki (Aurora kinase A): 8.5 nM
SMILES: Cc1cc(Nc2cc(C)c(C#N)c(SCCCCCCO)n2)[nH]n1

Ki (Aurora kinase A): 5.3 nM
SMILES: CC(=O)Nc1ccc(Sc2nc(Nc3cc(C)n[nH]3)cc(C)c2C#N)cc1

Ki [3]: 26 nM
Ki (Aurora kinase B): 101 nM
IC50 (HCT-116 [2]): 115 nM
Ki [4]: 24 nM
Ki (Aurora kinase A): 1.2 nM
Ki [5]: 28 nM
half-life [6]: 3.3 h
Tmax [7]: 1.2 h
CL [1]: 70 µL/min/mg
concentration at 24 h [8]: 52 nM
Cmax [9]: 4930 nM
SMILES: Cc1cc(Nc2cc(C)c(C#N)c(NC(C)CCCC(C)(C)O)n2)n[nH]1.Cl (racemic)
Activity (Mus musculus): Non-toxic
inhibition in vivo at 30 mg/kg (HCT-116 [10]): 59%
